This is an account of results in PMC6616128, “Liquiritin, as a Natural Inhibitor of AKR1C1, Could Interfere With the Progesterone Metabolism” (Frontiers in Physiology, 2019).

Where two headings read alike, the source gives them in different places.

The target in the experiment is T1, AKR1C1 (Homo sapiens, UniProt Q04828).
T1 sequence (Q04828 1-323): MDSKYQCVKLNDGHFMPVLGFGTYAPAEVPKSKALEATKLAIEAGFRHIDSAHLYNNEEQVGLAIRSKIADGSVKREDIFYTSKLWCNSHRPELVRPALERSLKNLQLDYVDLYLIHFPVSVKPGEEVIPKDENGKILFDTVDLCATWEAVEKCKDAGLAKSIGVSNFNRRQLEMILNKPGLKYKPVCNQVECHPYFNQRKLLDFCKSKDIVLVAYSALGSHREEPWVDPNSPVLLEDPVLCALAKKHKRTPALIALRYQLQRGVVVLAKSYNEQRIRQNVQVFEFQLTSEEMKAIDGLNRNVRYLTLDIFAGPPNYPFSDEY
The experiment can be described thus: Enzyme activity (NADPH) assay with s-tetralol, recombinant GST-AKR1C1.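 For all read-outs here: GST-fused AKR1C1 expressed in E. coli and purified by glutathione affinity, control wells received DMSO instead of compound, duplicate samples from a single experiment.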 The experiment is classed as biochemical. Set-up: made in house; host or cells: Escherichia coli JM109. The conditions noted are these: 2 μM compound; for slope: CON 0.0122; for enzyme activity: CON 192.295568; for inhibition at 2 µM: read-out: % inhibition.

[1] abbreviates: Supplementary Table 1, CON = 1, read-out: ratio (activity relative to CON).

Description: GST-tagged recombinant AKR1C isoforms expressed JM109 was grown in Luria-Bertani broth (100 μg⋅ml-1 ampicillin, pH = 7.0) at 37°C with orbital shaking at 220 rpm. When cells achieved an OD600 nm between 0.4 and 0.6, 0.3 mM final concentration of isopropyl β-D-1-thiogalactopyranoside (IPTG) was added to the cultures and incubated for an additional 12 h at 25°C. Cells were harvested by centrifugation at 8000 g for 10 min, and the cell pellets were stored at -80°C for storage. The pellets were resuspended in 1 × PBS, pH = 7.4 and lysed by ultrasonication at ice-cold temperature using an UH-03 union instrument. The purification of glutathione-S-transferase (GST)-fusion AKR1C1, AKR1C2, and AKR1C3 were then carried out using ÄKTA systems from GE Healthcare as described in Handbook. The recombinant proteins were eluted in 50 mM Tris–HCl (pH = 8.0) with 20 mM reduced glutathione, fresh preparedly. Protein concentrations were determined using the Bradford protein assay kit. All proteins were aliquoted and stored at -80°C containing 20% glycerol.
To screen for the indicated inhibitor, the assay mixture was added with additional DMSO or 2 μM compounds. […] The inhibition patterns were determined by fitting initial velocity and inhibitor concentration into inhibition models using Graphpad Prism 6.0. All inhibition data were obtained from single experiments, with samples conducted in duplicate.
Firstly, we overexpressed recombinant human AKR1C in E. coli in the form of a GST-fusion protein, and then purified it by affinity chromatography on glutathione-Sepharose.
To screen for the inhibitors of AKR1C1, we developed a readily accessible indirect NADPH generating-based assay that can be used for high-throughput inhibitors screening. […] Wells were included containing enzyme and no inhibitor or 2 μM inhibitor.

The inhibition is the relative decrease from the control value, in per cent. Take `COc1c(O)cc(O)c2c(=O)cc(-c3ccccc3)oc12` [Wogonin]: the remaining activity at 2 µM is 22.3% (Figure 1A, read-out: % Enzyme Activity); 22.3% under setting [1]; 22.3% (text on Figure 1A, read-out: inhibitory effect over AKR1C1 enzyme activity (% inhibition)). In addition, for the setting “Supplementary Table 1”, the slope is 0.00272. Besides, for the setting “Supplementary Table 1”, the enzyme activity worked out at 42.8725 nmol/min/mg. Also, the inhibition at 2 µM (Supplementary Table 1) was found to be 77.7%.
On to `COc1cc2c(c(OC)c1OC)-c1c(cc(OC)c(OC)c1OC)C[C@H](C)[C@H](C)C2` [Schisandrin A], for which, for the setting “Supplementary Table 1”, the slope came out at 0.0133, the enzyme activity came out at 209.2284 nmol/min/mg and the inhibition at 2 µM was -8.81%. Moreover, the remaining activity at 2 µM under setting [1] was 109%.
As for `CC(C)=CCOc1c2ccoc2cc2oc(=O)ccc12` [Isoimperatorin], where the note is “Supplementary Table 1”, the slope was found to be 0.0108, the enzyme activity is 170.1838 nmol/min/mg and the inhibition at 2 µM came to 11.5%. Moreover, the remaining activity at 2 µM under setting [1] was 88.5%.
`COc1cc2c(=O)c(-c3ccc(O)cc3)coc2cc1O` [Glycitein]: under “Supplementary Table 1”, the slope amounted to 0.0086, the enzyme activity is listed as 135.5526 nmol/min/mg and the inhibition at 2 µM is 29.5%. Further, the remaining activity at 2 µM under setting [1] amounted to 70.5%.
Take `COc1cc2c(cc1CC=C(C)C)C(=O)C[C@@H](c1ccc(O)cc1)O2` [Bavachinin A]: for the setting “Supplementary Table 1”, the slope is listed as 0.009203, the enzyme activity amounted to 145.0548 nmol/min/mg and the inhibition at 2 µM came to 24.6%. The remaining activity at 2 µM under setting [1] came out at 75.4%.
For `C[C@@H]1O[C@@H](O[C@@H]2[C@@H](O)[C@H](OCCc3ccc(O)c(O)c3)O[C@H](CO)[C@H]2OC(=O)/C=C/c2ccc(O)c(O)c2)[C@H](O)[C@H](O)[C@H]1O` [Acteoside], in that order: 0.0123, 194.5022 nmol/min/mg, -1.15% and 101%.
The term % inhibition denotes the drop in the measured response relative to a control, in per cent. As to Pseuginsenoside F11, where the note is “Supplementary Table 1”, the “% inhibition” value is recorded as 4.75%, the slope came to 0.0116 and the enzyme activity came out at 183.1536 nmol/min/mg. Moreover, the “ratio (activity relative to CON)” value (Supplementary Table 1, CON = 1) is given as 0.9525.
For Ginkgolide C, in that order: 31.9%, 0.008309, 130.9591 nmol/min/mg and 0.681.
For `O=c1ccc2cc3ccoc3cc2o1` [Psoralen], under “Supplementary Table 1”, the slope is on record as 0.0116, the enzyme activity came to 182.8834 nmol/min/mg and the inhibition at 2 µM is 4.89%. Further, the remaining activity at 2 µM under setting [1] came out at 95.1%.
The like results for `COc1ccc2cc1Oc1ccc(cc1)C[C@H]1c3cc(c(OC)cc3CCN1C)Oc1c(O)c(OC)cc3c1[C@H](C2)N(C)CC3` [Fangchinoline] were, in that order, 0.0139, 219.4962 nmol/min/mg, -14.2% and 114%.
The like results for `COc1ccc(-c2oc3cc(O)cc(O)c3c(=O)c2O)cc1` [Kaempferide] were, in that order, 0.0115, 181.9828 nmol/min/mg, 5.36% and 94.6%.
Take `C=C1C(=O)O[C@@H]2/C=C(\C)CC/C=C(\C)CC[C@@H]12` [Costundide]: under “Supplementary Table 1”, the “% inhibition” value was 40.47%, the slope amounted to 0.007263 and the enzyme activity was 114.4767 nmol/min/mg. For the same molecule, the “ratio (activity relative to CON)” value (Supplementary Table 1, CON = 1) was determined as 0.5953.
For `CC(C)=CCC[C@](C)(O[C@@H]1O[C@H](CO)[C@@H](O)[C@H](O)[C@H]1O)[C@H]1CC[C@]2(C)[C@@H]1[C@H](O)C[C@@H]1[C@@]3(C)CC[C@H](O)C(C)(C)[C@@H]3CC[C@]12C` [Ginsenoside CK], in that order: -0.56%, 0.0123, 193.3764 nmol/min/mg and 1.0056.
For `COc1ccc2c(c1)CC=C(CO)c1cc3c(cc1-2)OCO3` [Tenuifolin], under “Supplementary Table 1”, the slope worked out at 0.007214, the enzyme activity stood at 113.7111 nmol/min/mg and the inhibition at 2 µM is 40.9%. For the same molecule, the remaining activity at 2 µM under setting [1] amounted to 59.1%.
For `O=C(O[C@@H]1Cc2c(O)cc(O)cc2O[C@@H]1c1cc(O)c(O)c(O)c1)c1cc(O)c(O)c(O)c1` [(−)-Epigallocatechin gallate], in that order: 0.0121, 191.3949 nmol/min/mg, 0.47% and 99.5%.
The like results for `O=c1c(-c2ccc(O)cc2)coc2cc(O[C@@H]3O[C@H](CO)[C@@H](O)[C@H](O)[C@H]3O)ccc12` [Daidzin] were, in that order, 0.013, 204.9952 nmol/min/mg, -6.6% and 107%.
`COc1cc(C(=O)OCCCCN=C(N)N)cc(OC)c1O.Cl` [Leonurine hydrochloride]: for the setting “Supplementary Table 1”, the “% inhibition” value is on record as 40.77%, the slope was 0.007226 and the enzyme activity was found to be 113.8912 nmol/min/mg. Moreover, the “ratio (activity relative to CON)” value (Supplementary Table 1, CON = 1) worked out at 0.5923.
Turning to `CC(C)=CCc1cc2c(cc1O)oc(=O)c1c3ccc(O)cc3oc21` [Psoralidin], where the note is “Supplementary Table 1”, the “% inhibition” value is 2.25%, the slope is on record as 0.0119 and the enzyme activity was determined as 187.9723 nmol/min/mg. In addition, where the note is “Supplementary Table 1, CON = 1”, the “ratio (activity relative to CON)” value is 0.9775.
With `O=c1c(O[C@@H]2O[C@H](CO)[C@H](O)[C@H](O)[C@H]2O)c(-c2ccc(O)c(O)c2)oc2cc(O)cc(O)c12` [Hyperoside], under “Supplementary Table 1”, the slope came out at 0.0123, the enzyme activity is 193.4665 nmol/min/mg and the inhibition at 2 µM is -0.61%. Further, the remaining activity at 2 µM under setting [1] was 101%.
The like results for `C[C@H]1O[C@@H](O[C@H]2CC[C@@]3(C)[C@@H](CC[C@]4(C)[C@@H]3C=C[C@]35OC[C@@]6(CCC(C)(C)C[C@H]63)[C@@H](O)C[C@]54C)[C@]2(C)CO)[C@H](O)[C@@H](O[C@@H]2O[C@H](CO)[C@@H](O)[C@H](O)[C@H]2O)[C@H]1O` [Saikosaponin A] were, in that order, 0.0115, 181.6675 nmol/min/mg, 5.53% and 94.5%.
For `O=C(O[C@@H]1Cc2c(O)cc(O)cc2O[C@@H]1c1ccc(O)c(O)c1)c1cc(O)c(O)c(O)c1` [(−)-Epicatechin gallate], under “Supplementary Table 1”, the “% inhibition” value stood at 42.46%, the slope worked out at 0.00702 and the enzyme activity was 110.6488 nmol/min/mg. The “ratio (activity relative to CON)” value (Supplementary Table 1, CON = 1) turned out to be 0.5754.
`COc1cc2c(c(OC)c1OC)-c1c(cc(OC)c(OC)c1OC)C[C@](C)(O)[C@@H](C)C2` [Schisandrol A]: for the setting “Supplementary Table 1”, the “% inhibition” value is recorded as -12.27%, the slope was determined as 0.0137 and the enzyme activity is reported as 215.8934 nmol/min/mg. In addition, the “ratio (activity relative to CON)” value (Supplementary Table 1, CON = 1) worked out at 1.1227.
For (+)-Catechin hydrate, in that order: -7.87%, 0.0132, 207.427 nmol/min/mg and 1.0787.
Turning to `COc1cc(C[C@H]2C(=O)OC[C@@H]2Cc2ccc(OC)c(OC)c2)ccc1O` [Arctigenin], under “Supplementary Table 1”, the slope is given as 0.0129, the enzyme activity stood at 203.0137 nmol/min/mg and the inhibition at 2 µM was -5.57%. Also, the remaining activity at 2 µM under setting [1] turned out to be 106%.
The like results for `COc1cc(-c2oc3cc(O)cc(O)c3c(=O)c2O)ccc1O` [Isorhamnetin] were, in that order, 0.0125, 197.0241 nmol/min/mg, -2.46% and 102%.
Turning to Echinacoside, where the note is “Supplementary Table 1”, the “% inhibition” value is given as -7.12%, the slope turned out to be 0.0131 and the enzyme activity came to 205.9859 nmol/min/mg. The “ratio (activity relative to CON)” value (Supplementary Table 1, CON = 1) was determined as 1.0712.
For `C[C@]12C[C@@H](O)[C@@H]3C[C@@]1(O[C@@H]1O[C@H](CO)[C@@H](O)[C@H](O)[C@H]1O)[C@@]3(COC(=O)c1ccccc1)C(=O)O2` [Albiflorin], in that order: -5.5%, 0.0129, 202.8786 nmol/min/mg and 1.055.
For `COc1cc2c(c(OC)c1OC)-c1c(cc3c(c1OC)OCO3)CC(C)C(C)C2` (centres unmarked) [Schizandrin B], in that order: -23.91%, 0.0151, 238.2754 nmol/min/mg and 1.2391.
Turning to `Oc1cc(O)c2c(c1)O[C@H](c1ccc(O)c(O)c1)[C@H](O)C2` [Epicatechin], where the note is “Supplementary Table 1”, the slope was found to be 0.0136, the enzyme activity is on record as 214.5874 nmol/min/mg and the inhibition at 2 µM is -11.6%. Under setting [1], the remaining activity at 2 µM was 112%.
The like results for `COc1c2ccoc2cc2oc(=O)ccc12` [5-Methoxypsoralen] were, in that order, 0.0121, 190.1339 nmol/min/mg, 1.12% and 98.9%.
